Reference: US20220280492A1, “THERAPEUTIC AGENT FOR CANCER HAVING RESISTANCE TO ANTI-CCR4 ANTIBODY” (DAIICHI SANKYO COMPANY, LIMITED, priority 2019, published 2022)

How the values were obtained:
[1] = system: recurrent or refractory ATL patients; assay: multicenter open-label phase I trial of the clinical compound in non-Hodgkin's lymphoma patients; ATL patients analyzed; assay type: in vivo, human; design: key to Determination of effect on lesion site: Peripheral blood image / Best overall effect / Determination of effect on lesion site: Nodular lesion / Determination of effect on lesion site: Extranodal lesion: CR: Complete Remission; CRu: Uncertified Complete Remission; PR: Partial Remission; SD: Stable Disease; PD: Progressive Disease; NE: Not Evaluable
Procedure: Clinical trials which administer the clinical compound to patients with non-Hodgkin's lymphoma were carried out. ATL patients of the non-Hodgkin's lymphoma patients receiving the clinical compound were analyzed.
The clinical trial is a multicenter open-label phase I trial for the purpose of studying, e.g., safety, tolerability, pharmacokinetics and anti-tumor effect, by administering the clinical compound to patients with recurrent or refractory non-Hodgkin's lymphoma (no standard treatment is established or refractory or intolerant to a standard treatment) including ATL patients. […] In this manner, dose-limiting toxicity and recommended dose for the next phase are determined in the clinical trial.
The clinical compound was orally administered to individual test subjects once a day for consecutive days until unacceptable toxicity or disease progression was confirmed. […] The anti-tumor effect was observed principally, at intervals of 8 weeks, and evaluated based on “Definition, prognostic factors, treatment, and response criteria of adult T-cell leukemia-lymphoma: a proposal from an international consensus meeting” (J Clin Oncol. 2009; 27[3]: 453-9).
The dose of the first cohort was determined to be 150 mg/time/day based on the results of a nonclinical study. The dose of the next cohort was determined by comprehensively evaluating the dose recommended by the modified continual reassessment method (mCRM) based on information of the presence or absence of dose-limited toxicity and all safety data (including adverse event except dose limiting toxicity and abnormal laboratory test values), pharmacokinetics, biomarkers, and effectiveness data obtained up to the time point, and discussing with a sponsors, investigators and external experts.
The dosage amount of the clinical compound was in advance determined per cohort. As the clinical compound, two types of capsules different in dose were provided in combination. As the administration method, oral administration once a day was carried out for consecutive days.
The therapeutic effect on ATL was determined based on “Definition, prognostic factors, treatment, and response criteria of adult T-cell leukemia-lymphoma: a proposal from an international consensus meeting” (J Clin Oncol. 2009; 27[3]: 453-9). Before initiation of the clinical trial, necessary examinations, which were selected from CT scan, bone marrow examination, endoscopic inspection and blood test in accordance with the disease state of the test subject, were carried out to determine a target lesion. A change in the lesion was assessed principally at intervals of 8 weeks.

[2] = system: ATL patients with a history of treatment with the anti-CCR4 antibody mogamulizumab; details: phase II trials; cited from earlier work
[3] = ATL patient No. 1, 150 mg oral once a day, treatment history: mogamulizumab present, lenalidomide present
[4] = ATL patient No. 2, 150 mg oral once a day, treatment history: mogamulizumab present, no lenalidomide
[5] = ATL patient No. 9, 200 mg oral once a day, treatment history: no mogamulizumab, lenalidomide present

Structure (SMILES)	median value of PFS ([1]; 9 recurrent or refractory ATL patients)	Best overall effect [1, 3]	Determination of effect on lesion site: Extranodal lesion [1, 3]	Determination of effect on lesion site: Nodular lesion [1, 3]	Best overall effect [1, 4]	Determination of effect on lesion site: Extranodal lesion [1, 4]	Determination of effect on lesion site: Nodular lesion [1, 4]	Best overall effect [1, 5]	Determination of effect on lesion site: Peripheral blood image [1, 5]	patients evaluated as SD ([1]; of 6 patients with a history of treatment with mogamulizumab)	responders ([1]; of 6 patients with a history of treatment with mogamulizumab (CRu: 1 patient, PR: 2 patients))	response rate ([1]; recurrent or refractory ATL patients evaluable for effectiveness, 4 out of 9 patients [CRu: 1, PR: 3], 95%CI 13.7 to 78.8, intermediate data, oral once a day)	disease control rate (percentage of patients exerting an effect of SD or more) ([1]; recurrent or refractory ATL patients, 7 out of 9 patients, intermediate data)	response rate [2]
Cc1cc(C)c(CNC(=O)c2cc(Cl)c3c(c2C)O[C@@](C)([C@H]2CC[C@H](N(C)C)CC2)O3)c(=O)[nH]1.Cc1ccc(S(=O)(=O)O)cc1 [clinical compound, (2R)-7-chloro-2-[trans-4-(dimethylamino)cyclohexyl]-N-[(4,6-dimethyl-2-oxo-1,2-dihydropyridin-3-yl)methyl]-2,4-dimethyl-1,3-benzodioxol-5-carboxamide p-toluenesulfonate]	16.1 weeks	PD	PD	PD	PR	PR	Cru	PR	PR	2 patients	3 patients	44.4%	77.8%	
Nc1cccc2c1CN(C1CCC(=O)NC1=O)C2=O (centres unmarked) [lenalidomide]														about 18%
